The source of these data is PubChem BioAssay (NCI).

Some test systems named below: MDA-MB-435; ACHN renal; OVCAR-4 ovarian; HS 578T breast; COLO 205 colon; RXF 393 renal; CCRF-CEM leukemia; OVCAR-5 ovarian; CAKI-1 renal; SK-MEL-5 melanoma.
What all share (test): NCI tumour cell line growth inhibition, 48 h

Structures are written as SMILES.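 Dose response: 5 concentrations. Exposure: 48 h. Format: 96-well plates. Endpoint: linear interpolation; highest concentration if not reached. Here, GI50 denotes the concentration required for 50% inhibition of growth. TGI marks complete inhibition of growth.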 Where only a bound is given, the exact number is not on record here.

As to `N#Cc1c(-c2ccc(Cl)cc2)csc1NC(=O)Nc1cccc(C(F)(F)F)c1`, the GI50 in the assay on MDA-MB-435 was 2.73 µM; in the assay with ACHN renal, 2.23 µM; in the assay on OVCAR-4 ovarian it was 3.2 µM; with HS 578T breast it was 3.25 µM; in the assay with COLO 205 colon it was 1.91 µM; in the assay with RXF 393 renal, 2.33 µM. The GI50 in the assay on CCRF-CEM leukemia was 3.17 µM; in the assay on OVCAR-5 ovarian it was 2.98 µM; in the assay on CAKI-1 renal, 2.7 µM; in the assay on SK-MEL-5 melanoma, 1.74 µM. Also, the TGI worked out at 10.3 µM in the assay with MDA-MB-435; 6.51 µM with ACHN renal; 14.4 µM in the assay on OVCAR-4 ovarian; 23.9 µM in the assay on HS 578T breast; 3.88 µM with COLO 205 colon; 5.96 µM with RXF 393 renal. For the same compound, the TGI in the assay on CCRF-CEM leukemia turned out to be 12 µM; in the assay on OVCAR-5 ovarian, 12.9 µM; in the assay with CAKI-1 renal, 10.5 µM; in the assay with SK-MEL-5 melanoma, 3.18 µM.

Consider `COc1ccc(-c2nn(-c3cccc(Cl)c3)cc2-c2cc(-c3cccs3)no2)cc1`, for which the GI50 is 3.26 µM in the assay with MDA-MB-435; 4.39 µM in the assay with ACHN renal; 4.48 µM with OVCAR-4 ovarian; 4.42 µM in the assay on HS 578T breast; 3.21 µM in the assay on COLO 205 colon; 3.49 µM with RXF 393 renal. Also, the GI50 in the assay on CCRF-CEM leukemia is 3.84 µM; in the assay with OVCAR-5 ovarian it was 7.63 µM; with CAKI-1 renal, 2.05 µM; in the assay with SK-MEL-5 melanoma, 4.74 µM. Besides, the TGI was 17.3 µM with MDA-MB-435; over 100 µM with ACHN renal; 36.4 µM in the assay on OVCAR-4 ovarian; 45.5 µM with HS 578T breast; 7.24 µM in the assay with COLO 205 colon; 20.1 µM in the assay on RXF 393 renal. The TGI in the assay on CCRF-CEM leukemia was over 100 µM; in the assay on OVCAR-5 ovarian it was 74.1 µM; in the assay on CAKI-1 renal, 6.02 µM; with SK-MEL-5 melanoma, 17.3 µM.
